Measurements reported in ChEMBL document CHEMBL1201862, “PubChem BioAssay data set” (2004).
Counter-ions that a name gives are not always drawn. Active and inactive are the calls of the source.

Key:
[1] = HeLa 2N DNA content increase, dose response, cell-based, IC50 (AID 1117349); type: functional
[2] = Concentration-dependent survival of SW480 colon cancer line, luminescence detection with CellTiter-Glo, half-maximal inhibitory concentration (AID 1117338); type: functional
[3] = Dose-response inhibition of insulin secretion in a rat insulinoma line at 5 mM glucose (AID 1117331); type: functional, cell-based; settings: INS-1E
[4] = RKO cell viability reduction, dose response, CellTiter-Glo luminescence (AID 1117322); type: functional
[5] = SNU-C1 cell viability reduction, dose response, CellTiter-Glo luminescence (AID 1117323); type: functional, cell-based
cells [6] = type: functional, cell-based; settings: INS-1E
[7] = HeLa 4N DNA content increase, dose response, cell-based, IC50 (AID 1117351); type: functional
[8] = HCT116 cell viability decrease, GSK3B pretreatment – CellTiter-Glo, IC50, dose response (AID 1117339); type: functional; settings: HCT-116
[9] = Luminescence-based cell-based high throughput dose response assay to identify activators of the DAF-12 from the parasite S. stercoralis (ssDAF-12).; type: functional
[10] = molecular target: T1, Oxysterols receptor LXR-beta (Homo sapiens, UniProt P55055); test: LXR agonists, Gal4 luciferase reporter, dose response, counter-screen for ssDAF-12 agonist project, cell-based, luminescence, HEK293, S. stercoralis campaign (AID 720737); type: functional; settings: read-out: IC50 (the source's name)
T1 sequence (P55055 whole entry): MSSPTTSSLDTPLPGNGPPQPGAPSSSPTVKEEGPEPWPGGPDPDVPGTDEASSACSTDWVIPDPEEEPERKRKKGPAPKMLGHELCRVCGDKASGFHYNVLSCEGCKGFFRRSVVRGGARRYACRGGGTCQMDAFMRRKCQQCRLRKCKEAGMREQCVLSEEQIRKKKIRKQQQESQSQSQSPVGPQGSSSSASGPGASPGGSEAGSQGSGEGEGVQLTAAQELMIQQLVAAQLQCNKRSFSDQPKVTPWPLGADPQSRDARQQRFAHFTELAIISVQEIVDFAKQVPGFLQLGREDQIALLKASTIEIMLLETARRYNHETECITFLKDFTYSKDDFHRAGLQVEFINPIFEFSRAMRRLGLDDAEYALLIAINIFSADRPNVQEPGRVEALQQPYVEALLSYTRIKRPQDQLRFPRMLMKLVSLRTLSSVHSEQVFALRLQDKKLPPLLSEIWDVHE

[11] = molecular target: T1, Oxysterols receptor LXR-beta; type: functional, cell-based
cells [12] = test: cells
[13] = Luminescence Cell-Based Dose Confirmation HTS to Identify Activators of 5'UTR Stem-Loop Driven Alpha-Synuclein mRNA Translation in H4 Neuroglioblastoma Cells. [Related pubchem assays: 1829 (Project Summary), 1814 (Primary HTS)]; type: functional
H4 = test: Luminescence Cell-Based Dose Response HTS to Identify Activators of 5'UTR Stem-Loop Driven Prion Protein mRNA Translation in H4 Neuroglioblastoma Cells. [Related pubchem assays: 1829 (Project Summary), 1814 (Primary HTS)]; type: functional; settings: Homo sapiens
[14] = cytotoxicity in HPDE-C7 cells, cell-based, fluorescence, HTS (AID 430); type: functional; settings: Homo sapiens
[15] = cytotoxicity in KRAS-transformed pancreatic duct cells, primary screen, cell-based, fluorescence, HTS (AID 431); type: functional; settings: Homo sapiens;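 further: cell line used: HPDE-C7K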
[16] = growth suppression of PTEN-null colon cells, dose response, cell-based, HCT116 PTEN knockout (AID 1047); type: functional;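 further: HCT116 colon tumor cells with PTEN knocked out; cells exposed to compound for 60 hours before readout; potency for loss of cell viability measured by luminescence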
[17] = growth suppression of beta-catenin-knockout colon cells, dose response, cell-based, HCT116, human colon tumor (AID 1045); type: functional;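 further: HCT116 colon tumor cells with beta catenin knocked out; cells exposed to compound for 60 hours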
[18] = THP-1 cell cytotoxicity, dose response, cytotoxicity control for non-replicating M. tuberculosis project (AID 489025); type: functional
[19] = Vero E6 cell cytotoxicity, dose response, cytotoxicity control for non-replicating M. tuberculosis project, secondary assay (AID 492998); type: functional, VeroE6; settings: Vero C1008
Nonstructural protein 1 = Nonstructural protein 1 (Influenza A virus, UniProt Q194T2); type: functional, Influenza A virus (A/California/07/2009(H1N1))
Chain of Nonstructural protein 1 (Q194T2 whole entry): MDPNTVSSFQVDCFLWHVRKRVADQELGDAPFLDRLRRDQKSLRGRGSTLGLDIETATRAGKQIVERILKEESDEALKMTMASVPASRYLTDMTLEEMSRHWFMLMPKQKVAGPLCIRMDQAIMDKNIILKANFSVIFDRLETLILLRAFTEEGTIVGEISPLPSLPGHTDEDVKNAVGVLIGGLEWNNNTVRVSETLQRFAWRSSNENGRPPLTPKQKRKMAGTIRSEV

cells [20] = type: functional
[21] = molecular target: T2, Sentrin-specific protease 8 (Homo sapiens, UniProt Q96LD8); type: functional
T2 sequence (Q96LD8 whole entry): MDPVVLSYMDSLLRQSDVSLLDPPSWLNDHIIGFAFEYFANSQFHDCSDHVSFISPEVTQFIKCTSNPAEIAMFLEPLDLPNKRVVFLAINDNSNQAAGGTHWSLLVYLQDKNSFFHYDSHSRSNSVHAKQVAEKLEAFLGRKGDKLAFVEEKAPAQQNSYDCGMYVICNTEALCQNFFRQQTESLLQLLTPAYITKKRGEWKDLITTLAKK

[22] = molecular target: T2, Sentrin-specific protease 8; type: functional; remark: listed apart in the source
Fibrinogen beta chain [23] = molecular target: T3, Fibrinogen beta chain (Homo sapiens, UniProt P02675); test: Fluorescence polarization-based biochemical high throughput dose response assay to identify inhibitors that disrupt the binding of a cyclic peptide (Tn6) to the fibrin proteolytic product D-Dimer and fragment E complex [DD(E )].
T3 sequence (P02675 whole entry, the tested form may be a part): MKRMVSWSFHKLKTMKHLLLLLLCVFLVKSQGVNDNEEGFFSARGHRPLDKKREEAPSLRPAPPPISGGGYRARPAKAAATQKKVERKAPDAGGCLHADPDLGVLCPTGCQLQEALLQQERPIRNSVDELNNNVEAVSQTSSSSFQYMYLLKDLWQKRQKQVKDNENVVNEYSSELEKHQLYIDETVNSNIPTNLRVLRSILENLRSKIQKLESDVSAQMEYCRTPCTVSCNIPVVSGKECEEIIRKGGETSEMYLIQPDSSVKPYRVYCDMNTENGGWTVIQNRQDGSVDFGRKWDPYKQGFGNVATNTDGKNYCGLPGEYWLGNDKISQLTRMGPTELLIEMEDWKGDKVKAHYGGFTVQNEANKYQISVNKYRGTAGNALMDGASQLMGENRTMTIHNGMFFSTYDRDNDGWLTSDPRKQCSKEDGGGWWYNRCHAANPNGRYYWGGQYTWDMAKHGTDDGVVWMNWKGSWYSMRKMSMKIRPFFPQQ

Fibrinogen beta chain [24] = molecular target: T3, Fibrinogen beta chain; test: Fluorescence polarization-based biochemical high throughput dose response assay to identify inhibitors that disrupt the binding of a cyclic peptide (Tn7) to the fibrin proteolytic product D-Dimer and fragment E complex [DD(E )].
[25] = molecular target: G-protein coupled receptor 183 (Homo sapiens, UniProt P32249); test: SAR confirmation of small molecule antagonists of the EBI2 receptor via a luminescent beta-arrestin assa.; type: functional
Chain of G-protein coupled receptor 183 (P32249 whole entry): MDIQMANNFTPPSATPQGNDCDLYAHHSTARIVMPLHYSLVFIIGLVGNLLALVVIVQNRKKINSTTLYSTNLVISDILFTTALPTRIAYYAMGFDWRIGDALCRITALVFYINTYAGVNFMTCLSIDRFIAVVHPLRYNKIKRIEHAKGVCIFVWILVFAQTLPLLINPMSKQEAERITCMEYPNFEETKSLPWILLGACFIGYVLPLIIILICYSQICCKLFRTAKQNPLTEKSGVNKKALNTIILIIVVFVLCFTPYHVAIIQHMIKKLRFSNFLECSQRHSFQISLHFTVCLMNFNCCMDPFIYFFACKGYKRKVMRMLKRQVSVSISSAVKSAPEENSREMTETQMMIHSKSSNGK

**Q.** Which IC50 [1] does the source give for `CCN(CC)CCCC(C)Nc1c2ccc(Cl)cc2nc2ccc(OC)cc12` (configuration not stated) [QUINACRINE HYDROCHLORIDE] here?
**A.** The IC50 was 2.16 µM (active).

**Q.** What about the IC50 [2] of the same compound?
**A.** The IC50 was 3.6 µM (active).

**Q.** And the IC50 [3]?
**A.** The IC50 was 4.07 µM (active).

**Q.** What about the IC50 [4] of the same compound?
**A.** Its IC50 is 3.42 µM (active).

**Q.** And the IC50 [5]?
**A.** Its IC50 is 3.84 µM (active).

**Q.** And the IC50 (cells [6])?
**A.** Its IC50 is > 33.3 µM (inactive).

**Q.** And the IC50 [7]?
**A.** Its IC50 is > 10 µM (inactive).

**Q.** What about the IC50 [8] of the same compound?
**A.** The IC50 was 4.48 µM (active).

**Q.** What does the source list for `COc1ccc(-c2cc(-c3ccccc3O)[nH]n2)cc1`?
**A.** IC50 [9]: > 67.6 µM (inactive); EC50 [10]: > 67.6 µM (inactive); EC50 [11]: > 67.6 µM (inactive); EC50 (cells [12]): > 67.6 µM (inactive)

**Q.** For `N#CC(C#N)=c1ccc2c(c1)NC1(CCCCC1)N=2`, which EC50 [13] is on record?
**A.** Its EC50 is 1.55 µM (active).

**Q.** What about the EC50 (H4) of the same compound?
**A.** Its EC50 is 5.95 µM (active).

**Q.** And the EC50 [14]?
**A.** The EC50 was 6.5 µM (active).

**Q.** And the EC50 [15]?
**A.** The EC50 was 9.91 µM (active).

**Q.** What about the EC50 [16] of the same compound?
**A.** Its EC50 is 1.37 µM (active).

**Q.** What about the EC50 [17] of the same compound?
**A.** Its EC50 is 1.23 µM (active).

**Q.** What about the CC50 [18] of the same compound?
**A.** Its CC50 is 6.67 µM (active).

**Q.** And the CC50 [19]?
**A.** The CC50 was 15.4 µM (active).

**Q.** What about the IC50 (Nonstructural protein 1) of the same compound?
**A.** The IC50 was 15.6 µM (active).

**Q.** And the IC50 (cells [20])?
**A.** The IC50 was 10.7 µM (active).

**Q.** What about the IC50 [21] of the same compound?
**A.** The IC50 was > 100 µM (inactive).

**Q.** And the IC50 [22]?
**A.** Its IC50 is 3.45 µM (active).

**Q.** What about the IC50 (Fibrinogen beta chain [23]) of the same compound?
**A.** The IC50 was 11.3 µM (inactive).

**Q.** And the IC50 (Fibrinogen beta chain [24])?
**A.** Its IC50 is > 83.3 µM (inactive).

**Q.** With `O=C(/C=C/c1ccc(F)cc1)N1CCN(S(=O)(=O)CCc2ccccc2)CC1` as the compound, how does the IC50 [25] read?
**A.** The IC50 was 0.00327 µM (active).
